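Assay format: 96-well plates, 48-hour exposure. GI50 is the concentration that inhibits growth by half. TGI: concentration producing complete growth inhibition.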
Key:
Experiment in all cases: NCI-60 cell line screen, 48 h
HOP-62 NSCLC = tested on: HOP-62 NSCLC
HT29 colon = tested on: HT29 colon
IGROV1 ovarian = tested on: IGROV1 ovarian
MALME-3M melanoma = tested on: MALME-3M melanoma
OVCAR-4 ovarian = tested on: OVCAR-4 ovarian
SF-539 CNS = tested on: SF-539 CNS
SK-MEL-5 melanoma = tested on: SK-MEL-5 melanoma
SN12C renal = tested on: SN12C renal
SNB-75 CNS = tested on: SNB-75 CNS
SW-620 colon = tested on: SW-620 colon

Compound | GI50 (HOP-62 NSCLC) | TGI (HOP-62 NSCLC) | GI50 (HT29 colon) | TGI (HT29 colon) | GI50 (IGROV1 ovarian) | TGI (IGROV1 ovarian) | GI50 (MALME-3M melanoma) | TGI (MALME-3M melanoma) | GI50 (OVCAR-4 ovarian) | TGI (OVCAR-4 ovarian) | GI50 (SF-539 CNS) | TGI (SF-539 CNS) | GI50 (SK-MEL-5 melanoma) | TGI (SK-MEL-5 melanoma) | GI50 (SN12C renal) | TGI (SN12C renal) | GI50 (SNB-75 CNS) | TGI (SNB-75 CNS) | GI50 (SW-620 colon) | TGI (SW-620 colon)
CCSc1ccc(C2C(Br)C(=O)N2c2cc(OC)c(OC)c(OC)c2)cc1 (stereo not given) | 0.336 µM | > 100 µM | 0.351 µM | 12.3 µM | 0.63 µM | 20.9 µM | 11.3 µM | 32.4 µM | 1.43 µM | 40.5 µM | 0.161 µM | 0.61 µM | 0.0861 µM | 2.84 µM | 0.925 µM | 21 µM | 0.509 µM | > 100 µM | 0.236 µM | 20.3 µM
Cn1cc(C2=C(N3CCOCC3)C(=O)NC2=O)c2ccccc21 | > 25 µM | > 25 µM | > 25 µM | > 25 µM | > 25 µM | > 25 µM | > 25 µM | > 25 µM | > 25 µM | > 25 µM | > 25 µM | > 25 µM | > 25 µM | > 25 µM | > 25 µM | > 25 µM | > 25 µM | > 25 µM | > 25 µM | > 25 µM
CCC[CH2][Sn]1([CH2]CCC)[O]CC(C)[O]1 (stereo not given) | 2.63 µM | 6.62 µM | 1.74 µM | 3.44 µM | 1.88 µM | 3.94 µM | 0.544 µM | 2.22 µM | 1.59 µM | 3.45 µM | 1.46 µM | 3.46 µM | 1.47 µM | 3.26 µM | 1.39 µM | 2.78 µM | 0.57 µM | 2.3 µM | 0.46 µM | 1.83 µM
CC(=O)[CH-]C(C)=O.CC(=O)[CH-]C(C)=O.CC[O-].CC[O-].[Ti+4] | > 100 µM | > 100 µM | > 100 µM | > 100 µM | > 100 µM | > 100 µM | > 100 µM | > 100 µM | > 100 µM | > 100 µM | > 100 µM | > 100 µM | > 100 µM | > 100 µM | > 100 µM | > 100 µM | > 100 µM | > 100 µM | > 100 µM | > 100 µM
C/C=N\N1C(=O)c2ccccc2C1=O | – | > 100 µM | – | > 100 µM | – | > 100 µM | – | > 100 µM | – | > 100 µM | – | > 100 µM | – | > 100 µM | – | > 100 µM | – | > 100 µM | – | > 100 µM
C[C@]12CCC(=O)C=C1CC[C@@H]1C2CC[C@]2(C)c3nn(-c4ccccc4)nc3CC12 (stereo not given in full) | – | > 100 µM | – | > 100 µM | – | > 100 µM | – | > 100 µM | – | > 100 µM | – | > 100 µM | – | > 100 µM | – | > 100 µM | – | > 100 µM | – | > 100 µM
CC(O)c1cc(C(=O)N[C@@H](C)Cn2ccc(-c3ccc(C#N)c(Cl)c3)n2)n[nH]1 (stereo not given in full) | > 100 µM | > 100 µM | > 100 µM | > 100 µM | 78.8 µM | > 100 µM | 42.5 µM | > 100 µM | 16.3 µM | > 100 µM | > 100 µM | > 100 µM | 15.2 µM | 48.3 µM | 48.7 µM | > 100 µM | 52.4 µM | > 100 µM | > 100 µM | > 100 µM

— PubChem BioAssay (NCI)
